Experimental data as given in the NIST ThermoML archive (doi:10.1016/j.jct.2016.10.023).
Numbers after ± are expanded uncertainties.

Assay: xn = mol fraction of the nth substance listed
Conditions: Constant-volume piezometry

CCCCC [pentane] + CCCO
Conditions	mass density [kg/m3]
483.15 K, 3273 kPa, Gas, x1 = 0.5	89.08 ± 0.28
483.15 K, 3361 kPa, Gas, x1 = 0.5	96.03 ± 0.32
483.15 K, 3529 kPa, Gas, x1 = 0.8	106.6 ± 0.35
483.15 K, 3605 kPa, Fluid (supercritical or subcritical phases), x1 = 0.9	123.58 ± 1.1
483.15 K, 3709 kPa, Fluid (supercritical or subcritical phases), x1 = 0.9	134.38 ± 0.85
483.15 K, 3900 kPa, Fluid (supercritical or subcritical phases), x1 = 0.9	164.27 ± 1
483.15 K, 3917 kPa, Fluid (supercritical or subcritical phases), x1 = 0.8	140.58 ± 1
483.15 K, 3927 kPa, Liquid, x1 = 0.5	373.66 ± 0.76
483.15 K, 3981 kPa, Fluid (supercritical or subcritical phases), x1 = 0.8	156.35 ± 1
483.15 K, 4002 kPa, Fluid (supercritical or subcritical phases), x1 = 0.9	189.82 ± 1.2
483.15 K, 4026 kPa, Liquid, x1 = 0.5	384.78 ± 0.79
483.15 K, 4033 kPa, Fluid (supercritical or subcritical phases), x1 = 0.8	170.11 ± 1.1
483.15 K, 4049 kPa, Fluid (supercritical or subcritical phases), x1 = 0.9	202.77 ± 1.2
483.15 K, 4053 kPa, Fluid (supercritical or subcritical phases), x1 = 0.8	176.37 ± 1.1
483.15 K, 4071 kPa, Fluid (supercritical or subcritical phases), x1 = 0.8	181.18 ± 1.1
483.15 K, 4106 kPa, Fluid (supercritical or subcritical phases), x1 = 0.8	193.54 ± 1.1
483.15 K, 4109 kPa, Fluid (supercritical or subcritical phases), x1 = 0.9	221.12 ± 1.3
483.15 K, 4156 kPa, Fluid (supercritical or subcritical phases), x1 = 0.9	233.52 ± 1.4
483.15 K, 4162 kPa, Fluid (supercritical or subcritical phases), x1 = 0.8	214.27 ± 1.2
483.15 K, 4171 kPa, Fluid (supercritical or subcritical phases), x1 = 0.9	236.99 ± 1.4
483.15 K, 4179 kPa, Fluid (supercritical or subcritical phases), x1 = 0.8	220.05 ± 1.3
483.15 K, 4189 kPa, Fluid (supercritical or subcritical phases), x1 = 0.9	241.4 ± 1.4
483.15 K, 4200 kPa, Fluid (supercritical or subcritical phases), x1 = 0.9	244.72 ± 1.4
483.15 K, 4211 kPa, Fluid (supercritical or subcritical phases), x1 = 0.8	235.17 ± 1.3
483.15 K, 4239 kPa, Fluid (supercritical or subcritical phases), x1 = 0.8	245.83 ± 1.3
483.15 K, 4277 kPa, Fluid (supercritical or subcritical phases), x1 = 0.8	259.08 ± 1.4
483.15 K, 4309 kPa, Fluid (supercritical or subcritical phases), x1 = 0.9	282.57 ± 1.5
483.15 K, 4317 kPa, Fluid (supercritical or subcritical phases), x1 = 0.8	273.08 ± 1.5
483.15 K, 4417 kPa, Fluid (supercritical or subcritical phases), x1 = 0.8	288.96 ± 1.5
483.15 K, 4435 kPa, Fluid (supercritical or subcritical phases), x1 = 0.9	302.29 ± 1.6
483.15 K, 4437 kPa, Liquid, x1 = 0.5	398.98 ± 0.82
483.15 K, 4493 kPa, Fluid (supercritical or subcritical phases), x1 = 0.8	299.8 ± 1.6
483.15 K, 4551 kPa, Fluid (supercritical or subcritical phases), x1 = 0.9	312.96 ± 1.6
483.15 K, 4646 kPa, Fluid (supercritical or subcritical phases), x1 = 0.8	316.01 ± 1.6
483.15 K, 4807 kPa, Liquid, x1 = 0.2	510.78 ± 1
483.15 K, 4877 kPa, Fluid (supercritical or subcritical phases), x1 = 0.9	334.72 ± 1.7
483.15 K, 4915 kPa, Fluid (supercritical or subcritical phases), x1 = 0.8	334.54 ± 1.7
483.15 K, 5017 kPa, Liquid, x1 = 0.5	418.13 ± 0.85
483.15 K, 5178 kPa, Fluid (supercritical or subcritical phases), x1 = 0.8	346.09 ± 1.7
483.15 K, 5428 kPa, Fluid (supercritical or subcritical phases), x1 = 0.9	354.86 ± 1.8
483.15 K, 5641 kPa, Fluid (supercritical or subcritical phases), x1 = 0.8	362.7 ± 1.8
483.15 K, 6347 kPa, Liquid, x1 = 0.5	441.94 ± 0.9
483.15 K, 7296 kPa, Liquid, x1 = 0.5	452.28 ± 0.92
483.15 K, 8060 kPa, Liquid, x1 = 0.5	459.37 ± 0.93
483.15 K, 8482 kPa, Fluid (supercritical or subcritical phases), x1 = 0.9	408.19 ± 2
483.15 K, 8984 kPa, Fluid (supercritical or subcritical phases), x1 = 0.8	419.13 ± 2.1
483.15 K, 9371 kPa, Liquid, x1 = 0.5	469.23 ± 0.95
483.15 K, 10899 kPa, Liquid, x1 = 0.2	548.38 ± 1.1
483.15 K, 16393 kPa, Fluid (supercritical or subcritical phases), x1 = 0.8	467.78 ± 2.4
483.15 K, 16725 kPa, Liquid, x1 = 0.5	507.77 ± 1
483.15 K, 19754 kPa, Liquid, x1 = 0.5	520.6 ± 1.1
483.15 K, 21392 kPa, Liquid, x1 = 0.2	582.82 ± 1.2
483.15 K, 24098 kPa, Fluid (supercritical or subcritical phases), x1 = 0.8	497.3 ± 2.5
483.15 K, 27685 kPa, Liquid, x1 = 0.2	596.46 ± 1.2
483.15 K, 28654 kPa, Liquid, x1 = 0.5	549.54 ± 1.1
483.15 K, 34153 kPa, Fluid (supercritical or subcritical phases), x1 = 0.8	521.9 ± 2.6
483.15 K, 37683 kPa, Liquid, x1 = 0.2	615.9 ± 1.3
484.15 K, 3395 kPa, Gas, x1 = 0.5	96.03 ± 0.31
485.15 K, 3427 kPa, Gas, x1 = 0.5	96.02 ± 0.32
486.15 K, 3456 kPa, Gas, x1 = 0.5	96.02 ± 0.33
487.15 K, 3750 kPa, Gas, x1 = 0.5	122.1 ± 0.41
487.15 K, 4130 kPa, Liquid, x1 = 0.5	345.19 ± 0.72
488.15 K, 3498 kPa, Gas, x1 = 0.5	96.01 ± 0.34
488.15 K, 3783 kPa, Gas, x1 = 0.5	122.1 ± 0.41
488.15 K, 4237 kPa, Liquid, x1 = 0.5	345.17 ± 0.72
489.15 K, 3815 kPa, Gas, x1 = 0.5	122.09 ± 0.42
489.15 K, 4203 kPa, Liquid, x1 = 0.5	325.83 ± 0.68
490.15 K, 3453 kPa, Liquid, x1 = 0.2	471.25 ± 0.96
491.15 K, 4012 kPa, Gas, x1 = 0.5	144.34 ± 0.49

mass density [kg/m3], Liquid
Conditions	486.15 K	488.75 K	489.55 K	489.85 K	491.65 K
x1 = 0.2	–	–	–	471.25 ± 2.8	–
x1 = 0.5	345.21 ± 2.1	325.84 ± 2	320.54 ± 1.9	–	299.15 ± 1.8
